Reference: ChEMBL document CHEMBL1135121, “Design and synthesis of some new pyranoxanthenone aminoderivatives with cytotoxic activity” (Bioorg Med Chem Lett, 2002)

What was measured:
[1] = system: Calf thymus DNA; assay: In vitro calf thymus DNA binding affinity by ethidium bromide displacement; assay type: nucleic-acid assay, Bos taurus
[2] = system: A549; assay: Inhibitory concentration of compound against proliferation of lung carcinoma A549 cell line; assay type: functional, cell-based; details: Homo sapiens
[3] = system: L1210; assay: Inhibitory concentration of compound against proliferation of murine leukemia L1210 cell line; assay type: functional, cell-based; details: Mus musculus
[4] = system: HT-29; assay: Inhibitory concentration of compound against proliferation of colon carcinoma HT-29 cell line; assay type: functional, cell-based; details: Homo sapiens
[5] = system: Nucleic Acid; assay: In vitro DNA binding affinity for calf thymus DNA was determined using ethidium bromide displacement assay; Not detected; assay type: nucleic-acid assay, Bos taurus
[6] = system: HT-29; assay: Cell-cycle-phase distribution of HT-29 cell-cultures exposed to 10 uM concentration of compound for 22 hr in S phase; assay type: functional, Homo sapiens
[7] = system: HT-29; assay: Cell-cycle-phase distribution of HT-29 cell-cultures exposed to 10 uM concentration of compound for 22 hr in G2/M phase; assay type: functional, Homo sapiens
[8] = system: HT-29; assay: Cell-cycle-phase distribution of HT-29 cell-cultures exposed to 10 uM concentration of compound for 22 hr in G0/G1 phase; assay type: functional, Homo sapiens

Structure (SMILES) | EC50 [1] [µM] | IC50 [2] [µM] | IC50 [3] [µM] | IC50 [4] [µM] | EC50 [5] | Activity [6] | Activity [7] | Activity [8]
CCN(CC)CCNC(=O)c1cc2c(c3oc4ccccc4c(=O)c13)C=CC(C)(C)O2 | 150 | 60 | 10 | 30 |  |  |  | 
O=C1c2c(O)ccc(O)c2C(=O)c2c(NCCNCCO)ccc(NCCNCCO)c21 [MITOXANTRONE] | 0.4 | 0.3 | 0.04 | 8 |  |  |  | 
COc1cc2c(c3c1c(=O)c1ccccc1n3C)C=CC(C)(C)O2 [ACRONINE] | 82 | > 100 | 27 | > 100 |  |  |  | 
CN(C)CCNC(=O)c1cc2c(c3oc4ccccc4c(=O)c13)C=CC(C)(C)O2 | 197 | 90 | 16 | 12 |  |  |  | 
CCN(CC)CCNCc1c2c(cc3oc4ccccc4c(=O)c13)OC(C)(C)C=C2.Cl | 30 | 8 | 2 | 2 |  | 21.22 | 8.86 | 69.92
CN(C)CCNCc1cc2c(c3oc4ccccc4c(=O)c13)C=CC(C)(C)O2 | 74 | 44 | 4.1 | 8.8 |  |  |  | 
CN(C)CCNCc1c2c(cc3oc4ccccc4c(=O)c13)OC(C)(C)C=C2 | 39 | 25 | 4 | 6.4 |  |  |  | 
CCN(CC)CCNCc1cc2c(c3oc4ccccc4c(=O)c13)C=CC(C)(C)O2.O=C(O)/C=C/C(=O)O | 42 | 11 | 2 | 1.7 |  | 12.53 | 7.77 | 79.7

Continued, in another order:

EC50 [1] [µM] | IC50 [2] [µM] | IC50 [3] [µM] | IC50 [4] [µM] | EC50 [5] | Structure (SMILES) | Activity [6] | Activity [7] | Activity [8]
 | 30 | 5.8 | 23 | Not detected | CN(C)CCNc1c2c(cc3oc4ccccc4c(=O)c13)OC(C)(C)C=C2.Cl |  |  | 
89 | 23 | 7.1 | 8 |  | CN(C)CCNc1cc2c(c3oc4ccccc4c(=O)c13)C=CC(C)(C)O2 |  |  | 
100 | 51 | 9 | 40 |  | CCN(CC)CCNC(=O)c1c2c(cc3oc4ccccc4c(=O)c13)OC(C)(C)C=C2 | 1.06 | 37.7 | 61.24
 | 25 | 5.1 | 8 | Not detected | CCN(CC)CCNc1c2c(cc3oc4ccccc4c(=O)c13)OC(C)(C)C=C2.Cl |  |  | 
88 | > 100 | 8.4 | 42 |  | CCN(CC)CCNc1cc2c(c3oc4ccccc4c(=O)c13)C=CC(C)(C)O2 |  |  | 
107 | 57 | 12 | 60 |  | CN(C)CCNC(=O)c1c2c(cc3oc4ccccc4c(=O)c13)OC(C)(C)C=C2 |  |  | 
